Test results taken from patent US4393228A, “Epoxysuccinic acid derivatives” (Taisho Pharmaceutical Co., Ltd., priority 1977, dated 1983).

Biological target: T1, papain (Carica papaya, UniProt P00784)
T1 construct: purchased Sigma Chem. Co
T1 sequence (P00784 134-345): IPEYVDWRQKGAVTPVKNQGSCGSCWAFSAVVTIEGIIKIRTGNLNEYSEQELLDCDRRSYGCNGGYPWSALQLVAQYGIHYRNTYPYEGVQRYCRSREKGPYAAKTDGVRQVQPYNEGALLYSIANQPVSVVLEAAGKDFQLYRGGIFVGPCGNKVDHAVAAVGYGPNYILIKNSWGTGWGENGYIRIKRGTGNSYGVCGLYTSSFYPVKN
Test: Papain inhibitory activity (milk casein digestion)
Format: biochemical
Conditions: papain 80 μg/ml 0.5 ml, cysteine, pH 6.8, 1% milk casein, 40° C., 10 minutes
Experimental: Papain inhibitory activity of the compounds of this invention was assayed as follows: To 0.5 ml of a solution of papain (80 μg/ml, Sigma Chem. Co., 2x cry.), were added 0.25 ml of 40 mM cysteine dissolved in 20 mM disodium ethylenediamine tetraacetic acid solution adjusted pH to 6.8 with sodium hydroxide and 0.25 ml of 33 mM phosphate buffer (pH 6.8) with or without inhibitor. After incubation at 40° C. for 15 minutes, the resulting mixture was added to 5 ml of 1% milk casein solution in the same buffer as described above, and further incubated at 40° C. for 10 minutes. Then the mixture was mixed with 5 ml of 0.44 M trichloroacetic acid solution and followed by filtration with a sheet of Toyo filter paper No. 4. The extinction of the filtrate was read at 280 nm. The percent inhibition was calculated from the formula, 100 x (B-A)/B; wherein B stands for the absorbance without inhibitor and A for the absorbance with inhibitor. The compound Nos. in Table 1 are as defined in Examples as described hereinafter.

Row | Compound | ID50 (amount of inhibitor for 50% inhibition)
1 | Cc1cccc2c(COC(=O)[C@@H]3O[C@H]3C(=O)OCc3ccc(C)c4c(C)cccc34)ccc(C)c12 (relative stereo) [EP-87, di-4',5'-dimethyl-1'-naphthylmethyl epoxysuccinate] | 1.58 γ
2 | Cc1cccc2c(COC(=O)[C@@H]3O[C@H]3C(=O)O)ccc(C)c12 (relative stereo) [EP-88, 4',5'-dimethyl-1'-naphthylmethyl potassium epoxysuccinate] | 0.32 γ
3 | Cc1ccc(COC(=O)[C@@H]2O[C@H]2C(=O)OCc2ccc(C)cc2)cc1 (relative stereo) [EP-89, di-p-methylbenzyl epoxysuccinate] | 1.39 γ
4 | Cc1ccc(COC(=O)[C@@H]2O[C@H]2C(=O)O)cc1 (relative stereo) [EP-90, p-methylbenzyl potassium epoxysuccinate] | 0.25 γ
5 | Cc1ccccc1COC(=O)[C@@H]1O[C@H]1C(=O)OCc1ccccc1C (relative stereo) [EP-91, di-o-methylbenzyl epoxysuccinate] | 0.35 γ
6 | Cc1ccccc1COC(=O)[C@@H]1O[C@H]1C(=O)O (relative stereo) [EP-92, o-methylbenzyl potassium epoxysuccinate] | 0.10 γ
7 | Cc1cc(C)cc(COC(=O)[C@@H]2O[C@H]2C(=O)OCc2cc(C)cc(C)c2)c1 (relative stereo) [EP-93, di-3',5'-dimethylbenzyl epoxysuccinate] | 4.31 γ
8 | Cc1cc(C)cc(COC(=O)[C@@H]2O[C@H]2C(=O)O)c1 (relative stereo) [EP-94, 3',5'-dimethylbenzyl potassium epoxysuccinate] | 0.27 γ
9 | Cc1cc(C)c(COC(=O)[C@@H]2O[C@H]2C(=O)OCc2c(C)cc(C)cc2C)c(C)c1 (relative stereo) [EP-95, di-2',4',6'-trimethylbenzyl epoxysuccinate] | 4.20 γ
10 | Cc1cc(C)c(COC(=O)[C@@H]2O[C@H]2C(=O)O)c(C)c1 (relative stereo) [EP-96, 2',4',6'-trimethylbenzyl potassium epoxysuccinate] | 0.37 γ
11 | Cc1cccc(COC(=O)[C@@H]2O[C@H]2C(=O)OCc2cccc(C)c2Br)c1Br (relative stereo) [EP-97, di-2'-bromo-3'-methylbenzyl epoxysuccinate] | 3.20 γ
12 | Cc1cccc(COC(=O)[C@@H]2O[C@H]2C(=O)O)c1Br (relative stereo) [EP-98, 2'-bromo-3'-methylbenzyl potassium epoxysuccinate] | 0.32 γ
13 | O=C(OCc1cccc(C(F)(F)F)c1)[C@@H]1O[C@H]1C(=O)OCc1cccc(C(F)(F)F)c1 (relative stereo) [EP-99, di-3'-trifluoromethylbenzyl epoxysuccinate] | 0.50 γ
14 | O=C(O)[C@@H]1O[C@H]1C(=O)OCc1cccc(C(F)(F)F)c1 (relative stereo) [EP-100, 3'-trifluoromethylbenzyl potassium epoxysuccinate] | 0.10 γ
15 | COc1ccc(COC(=O)[C@@H]2O[C@H]2C(=O)OCc2ccc(OC)cc2)cc1 (relative stereo) [EP-101, di-p-methoxybenzyl epoxysuccinate] | 1.51 γ
16 | O=C(OCc1ccc2c(c1)OCO2)[C@@H]1O[C@H]1C(=O)OCc1ccc2c(c1)OCO2 (relative stereo) [EP-103, di-methylene-3',4'-dioxybenzyl epoxysuccinate] | 1.06 γ
17 | O=C(O)[C@@H]1O[C@H]1C(=O)OCc1ccc2c(c1)OCO2 (relative stereo) [EP-104, methylene-3',4'-dioxybenzyl potassium epoxysuccinate] | 0.36 γ
18 | O=C(OCc1ccccc1I)[C@@H]1O[C@H]1C(=O)OCc1ccccc1I (relative stereo) [EP-105, di-o-iodobenzyl epoxysuccinate] | 0.40 γ
19 | O=C(O)[C@H]1O[C@@H]1C(=O)OCc1ccccc1I (relative stereo) [EP-106, o-iodobenzyl potassium epoxysuccinate] | 0.14 γ
20 | O=C(OCc1ccccc1Cl)[C@@H]1O[C@H]1C(=O)OCc1ccccc1Cl (relative stereo) [EP-107, di-o-chlorobenzyl epoxysuccinate] | 0.15 γ
21 | O=C(O)[C@H]1O[C@@H]1C(=O)OCc1ccccc1Cl (relative stereo) [EP-108, o-chlorobenzyl potassium epoxysuccinate] | 0.09 γ

Row | Compound | ID50 (amount of inhibitor for 50% inhibition)
22 | O=C(OCc1cccc(Cl)c1)[C@@H]1O[C@H]1C(=O)OCc1cccc(Cl)c1 (relative stereo) [EP-109, di-m-chlorobenzyl epoxysuccinate] | 0.50 γ
23 | O=C(O)[C@H]1O[C@@H]1C(=O)OCc1cccc(Cl)c1 (relative stereo) [EP-110, m-chlorobenzyl potassium epoxysuccinate] | 0.24 γ
24 | O=C(OCc1ccc(I)cc1)[C@@H]1O[C@H]1C(=O)OCc1ccc(I)cc1 (relative stereo) [EP-111, di-p-iodobenzyl epoxysuccinate] | 2.91 γ
25 | O=C(O)[C@H]1O[C@@H]1C(=O)OCc1ccc(I)cc1 (relative stereo) [EP-112, p-iodobenzyl potassium epoxysuccinate] | 0.32 γ
26 | O=C(OCc1ccc(Br)cc1)[C@@H]1O[C@H]1C(=O)OCc1ccc(Br)cc1 (relative stereo) [EP-113, di-p-bromobenzyl epoxysuccinate] | 0.99 γ
27 | O=C(O)[C@H]1O[C@@H]1C(=O)OCc1ccc(Br)cc1 (relative stereo) [EP-114, p-bromobenzyl potassium epoxysuccinate] | 0.26 γ
28 | O=C(OCc1ccc(Cl)cc1)[C@@H]1O[C@H]1C(=O)OCc1ccc(Cl)cc1 (relative stereo) [EP-115, di-p-chlorobenzyl epoxysuccinate] | 1.20 γ
29 | O=C(OCc1ccc(Cl)cc1Cl)[C@H]1O[C@@H]1C(=O)OCc1ccc(Cl)cc1Cl (relative stereo) [EP-117, di-2',4'-dichlorobenzyl epoxysuccinate] | 2.55 γ
30 | O=C(O)[C@H]1O[C@@H]1C(=O)OCc1ccc(Cl)cc1Cl (relative stereo) [EP-118, 2',4'-dichlorobenzyl potassium epoxysuccinate] | 0.11 γ
31 | O=C(OCc1ccc(I)cc1Br)[C@H]1O[C@@H]1C(=O)OCc1ccc(I)cc1Br (relative stereo) [EP-119, di-2'-bromo-4'-iodobenzyl epoxysuccinate] | 3.00 γ
32 | O=C(O)[C@H]1O[C@@H]1C(=O)OCc1ccc(I)cc1Br (relative stereo) [EP-120, 2'-bromo-4'-iodobenzyl potassium epoxysuccinate] | 0.40 γ
33 | O=C(O)[C@H]1O[C@@H]1C(=O)OCc1cccc(F)c1 (relative stereo) [EP-122, m-fluorobenzyl potassium epoxysuccinate] | 0.10 γ
34 | O=C(OCc1ccccc1F)[C@H]1O[C@@H]1C(=O)OCc1ccccc1F (relative stereo) [EP-123, di-o-fluorobenzyl epoxysuccinate] | 0.30 γ
35 | O=C(O)[C@H]1O[C@@H]1C(=O)OCc1ccccc1F (relative stereo) [EP-124, o-fluorobenzyl potassium epoxysuccinate] | 0.10 γ
36 | O=C(OCc1ccc(Br)c(Cl)c1)[C@H]1O[C@@H]1C(=O)OCc1ccc(Br)c(Cl)c1 (relative stereo) [EP-125, di-3'-chloro-4'-bromobenzyl epoxysuccinate] | 2.90 γ
37 | O=C(O)[C@H]1O[C@@H]1C(=O)OCc1ccc(Br)c(Cl)c1 (relative stereo) [EP-126, 3'-chloro-4'-bromobenzyl potassium epoxysuccinate] | 0.12 γ
38 | O=C(OCc1cc(Cl)ccc1Cl)[C@H]1O[C@@H]1C(=O)OCc1cc(Cl)ccc1Cl (relative stereo) [EP-127, di-2',5'-dichlorobenzyl epoxysuccinate] | 2.00 γ
39 | O=C(O)[C@H]1O[C@@H]1C(=O)OCc1cc(Cl)ccc1Cl (relative stereo) [EP-128, 2',5'-dichlorobenzyl potassium epoxysuccinate] | 0.11 γ
40 | O=C(OCCc1ccccc1)[C@H]1O[C@@H]1C(=O)OCCc1ccccc1 (relative stereo) [EP-129, di-2'-phenylethyl epoxysuccinate] | 0.78 γ
41 | O=C(O)[C@H]1O[C@@H]1C(=O)OCCc1ccccc1 (relative stereo) [EP-130, 2'-phenylethyl potassium epoxysuccinate] | 0.10 γ
